Measurements taken from publication PMC4979060, “Structural basis of metallo-β-lactamase, serine-β-lactamase and penicillin-binding protein inhibition by cyclic boronates” (Nature Communications, 2016).

How the values were obtained:
[1] = biological target: T1, VIM-2 (Escherichia coli, UniProt Q5U7L7); assay: Fluorogenic β-lactamase inhibition assay (FC-5 substrate), VIM-2; assay type: biochemical
T1 construct: made in house; host or cells: E. coli
Method: (§1) Kinetic and inhibition analyses, and ^19F NMR studies[10] against bacterial β-lactamases were performed as described. The FC-5 cephalosporin[9] was used as substrate for BcII, VIM-2, IMP-1, NDM-1, SPM-1, TEM-1 and OXA-10, meropenem[28] for CphA and nitrocefin[34] for PBP 3 and PBP 5.
(§2) In brief IC50 values were determined by preincubation of the appropriate amount of enzyme with the cyclic boronates in the assay buffers for 10 min at room temperature prior to the initiation of the assay by the addition of the appropriate substrate. The enzyme concentrations used are the following: 1 nM BcII, 100 nM VIM-2, 10 nM IMP-1, 10 nM NDM-1, 1 nM SPM-1, 1 nM TEM-1, 1 nM OXA-10, 2.5 nM CphA, 4 μM PBP 3 and 5 μM PBP 5; note that the final concentrations are stated. The assay buffers used are the following: 50 mM HEPES, pH 7.2 supplemented with 1 μg BSA, 1 μg ZnSO4 and 0.01% Triton for BcII, VIM-2, IMP-1, NDM-1 and SPM-1, 15 mM MES, pH 6.5 for CphA, 50 mM HEPES, pH 7.2 supplemented with 200 mM NaCl and 0.01% Triton 100 for TEM-1, 100 mM sodium phosphate, pH 7.2 supplemented with 50 mM NaHCO3 and 0.01% Triton 100 for OXA-10 and 50 mM HEPES, pH 7.2 supplemented with 200 mM NaCl and 0.01% Triton 100 for PBP 3 and PBP 5. The amount of substrates used is the following: 5 μM for BcII, VIM-2, IMP-1, NDM-1 and SPM-1, 10 μM for TEM-1 and OXA-10, 125 μM for CphA and 25 μM for PBP 3 and PBP 5; note that the final concentrations are stated.
(§3) The experiments were performed using a PHERAstar FS microplate reader (BMG Labtech) at room temperature (24–25 °C). All enzymes and inhibitors were prepared in the specific assay buffer. The kinetic values in this study are the means from at least three independent measurements; at least nine different concentrations of the inhibitor were used to determine the kinetic parameters (IC50). The IC50 values were determined using the software package Graph Prism 5.

[2] = biological target: T2, CphA (Aeromonas hydrophila, UniProt P26918); assay: B2 MBL inhibition assay (meropenem substrate), CphA; assay type: biochemical, Aeromonas hydrophilia
T2 construct: made in house; host or cells: E. coli
T2 sequence (P26918 28-254): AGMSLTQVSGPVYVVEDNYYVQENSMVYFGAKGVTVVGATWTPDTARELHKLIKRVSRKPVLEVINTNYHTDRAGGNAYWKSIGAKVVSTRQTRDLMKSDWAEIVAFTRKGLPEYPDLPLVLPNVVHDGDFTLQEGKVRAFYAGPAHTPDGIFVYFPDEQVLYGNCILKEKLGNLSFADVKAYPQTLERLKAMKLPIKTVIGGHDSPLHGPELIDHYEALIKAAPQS
Method: as §1, §2, §3

[3] = biological target: T3, OXA-10 (Pseudomonas aeruginosa, UniProt P14489); assay: Fluorogenic β-lactamase inhibition assay (FC-5 substrate), OXA-10; assay type: biochemical
T3 construct: made in house; host or cells: E. coli
T3 sequence (P14489 20-266, species assumed): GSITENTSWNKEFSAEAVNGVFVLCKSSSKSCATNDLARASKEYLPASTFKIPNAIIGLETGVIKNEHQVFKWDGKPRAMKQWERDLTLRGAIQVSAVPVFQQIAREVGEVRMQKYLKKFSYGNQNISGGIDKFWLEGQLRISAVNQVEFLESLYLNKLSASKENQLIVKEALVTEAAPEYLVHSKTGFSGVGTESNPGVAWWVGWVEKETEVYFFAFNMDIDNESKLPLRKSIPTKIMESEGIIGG
Method: as §1, §2, §3

[4] = system: K. pneumoniae Ecl8 pSU18:NDM-1; assay: MIC by broth microdilution and checkerboard; assay type: cell-based; settings: Klebsiella pneumoniae, read-out: 2 MIC, 2 alone; Ecl8 pSU18:NDM-1 (blaSHV-1; blaNDM-1)
Description: (§4) Bacterial strains: E. coli ATCC 25922 (ref. [35]) and K. pneumoniae NCTC 5055 (ref. [36]) were used as reference strains. K. pneumoniae Ecl8 (ref. [16]) and its ramR knock-out[37] were used as previously described. K. pneumoniae strain IR8 (ref. [40]), and E. coli strains IR10 and IR60 (ref. [17]) were generous gifts of Prof. T.R. Walsh. Plasmid pSU18:NDM-1 contains the complete blaNDM-1 open reading frame, together with its promoter, cloned into plasmid pSU18 (ref. [41]). The recombinant plasmid was made by PCR amplifying the blaNDM-1 gene and surrounding sequences from E. coli IR10 with primers NDM1F 5′- […] -3′ and NDM1R 5′- GGCGATGACAGCATCATC -3′, TA cloning the amplicon into pCR2.1 TOPO (Invitrogen) and subcloning into pSU18 using BamHI and XbaI.
(§5) MIC values were determined by broth microdilution, in triplicate, in cation-adjusted Mueller Hinton broth (Sigma) according to the Clinical Laboratory Standards Institute (CLSI) guidelines. Experiments were carried out in microtitre plates (Corning) containing the medium plus meropenem (Sequoia Research Products, Pangbourne, UK) and/or inhibitor 2 as appropriate. Chloramphenicol (20 μg ml^−1) was included in assays of strains (K. pneumoniae Ecl8 and derivative) that carried pSU18 plasmids or derivatives (pSU18:NDM-1) to ensure maintenance of plasmids throughout. Inhibitor 2 was dissolved in DMSO to 100 mg ml^−1 and diluted in broth. The final concentration of DMSO in the assays was kept constant at 0.01% (experiments using 10 μg ml^−1 inhibitor) or 0.03% (experiments using 25 μg ml^−1 inhibitor). Plates were incubated overnight at 37 °C for 18–24 h and absorbance at 600 nm read using a Polarstar Omega (BMG LabTech) plate reader.

[5] = system: E. coli IR10; assay: MIC by broth microdilution; assay type: cell-based; settings: Escherichia coli, IR10, read-out: 2 MIC
Description: as §4, §5

[6] = system: E. coli IR60; assay: MIC by broth microdilution; assay type: cell-based; settings: Escherichia coli, IR60, read-out: 2 MIC
Description: as §4, §5

[7] = system: K pneumoniae Ecl8 ΔramR pSU18; assay: MIC by broth microdilution; assay type: cell-based; settings: Klebsiella pneumoniae, read-out: 2 MIC
Description: as §4, §5

[8] = system: HEK293 cells; assay: Cytotoxicity assay (MTS); assay type: cell-based; settings: human HEK293 cells, concentrations up to 100 μM, 24 h
Method: HEK293 cells were seeded (2,000 per well) in normal DMEM in 96-well plates.[34] After 24 h, wells were dosed with titrated concentration of compounds in 1% dimethyl sulphoxide (DMSO)—final volume of media about 100 μl. Following a further 24 h incubation period, 20 μl tetrazolium (MTS, CellTiter96Aqueous One Solution (Promega)) was added to the media in each well. The plate was incubated at 37 °C, 5% CO2 for 4 h in the dark before absorbance was read at 490 nm to determine cell proliferation values.

[9] = biological target: M67C NDM-1 (Klebsiella pneumoniae, UniProt C7C422, M67C); assay: 19F-protein NMR binding study; settings: M67C NDM-1 labelled with 1,1,1-trifluoro-3-bromo acetone
M67C NDM-1, sequence (C7C422 29-270 M67C): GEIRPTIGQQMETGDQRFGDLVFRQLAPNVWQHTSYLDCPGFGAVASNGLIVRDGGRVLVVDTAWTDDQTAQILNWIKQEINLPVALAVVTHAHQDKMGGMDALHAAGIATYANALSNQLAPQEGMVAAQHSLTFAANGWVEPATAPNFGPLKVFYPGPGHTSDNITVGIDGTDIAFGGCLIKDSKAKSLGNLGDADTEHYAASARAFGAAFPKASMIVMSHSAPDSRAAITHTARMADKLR
Method: as §1
Supplementary Fig. 1. 19F NMR analyses of the NDM-1*-di-Zn(II)-2 complex. Titration using 2 gave rise to a new signal corresponding to a 2-NDM-1* complex, even at low concentrations of 2 indicating tight binding; at a 1:1, enzyme:inhibitor ratio (NDM-1*:2) no signals corresponding to uncomplexed NDM-1* species were observed. NDM-1* = NDM-1 M67C variant modified by reaction with BrCH COCF 1.
Supplementary Fig. 2. Cytotoxicity of 1,2 and Staurosporine (a control) using HEK293 cells.
(also on this page, place not known: enzyme: inhibitor NDM -1 BrCH2COCF3 -2 -1 0 1 0.5 1.0 1.5 - Log concentration (µM) Abs 490 HEK293 - 2 HEK293 - 1 Staurosporine HEK293) […]

Structure (SMILES): NCc1ccc(C(=O)N[C@H]2Cc3cccc(C(=O)O)c3O[B-]2(O)O)cc1 [compound 2]
- pIC50 [1]: 8.5
- IC50 ([1]; 10 min preincubation): 0.003 µM
- pIC50 [2]: > 4
- IC50 ([2]; 10 min preincubation): > 100 µM
- pIC50 [3]: 5.2
- IC50 ([3]; 10 min preincubation): 5.1 µM
- MIC [4]: > 128 µg/mL
- MIC [5]: > 128 µg/mL
- MIC [6]: > 128 µg/mL
- MIC [7]: > 128 µg/mL
- cytotoxicity [8]: Neither 1 nor 2 showed cytotoxicity
- binding to the active site by 19F NMR titration [9]: tight binding
